Experimental data as given in article PMC6479915, “Novel Benzene-Based Carbamates for AChE/BChE Inhibition: Synthesis and Ligand/Structure-Oriented SAR Study” (International Journal of Molecular Sciences, 2019).

Tests used:
AChE from electric eel = target: T1, AChE from electric eel (Electrophorus electricus, UniProt O42275); assay: biochemical; conditions: mean ± SD, n = three experiments; 25 °C, PBS pH 7.4, substrate ATCh 40 μM
T1 construct: purchased Sigma, St. Louis, MO, USA

BChE from equine serum = target: T2, BChE from equine serum (Equus caballus, UniProt P81908); assay: In vitro BChE inhibition, modified Ellman's method; format: biochemical; conditions: for SI (index selectivity) = IC50 (AChE)/IC50 (BChE): higher value = higher selectivity to BChE
T2 construct: BChE (from equine serum); purchased Sigma, St. Louis, MO, USA; host or cells: equine serum
T2 sequence (P81908 whole entry): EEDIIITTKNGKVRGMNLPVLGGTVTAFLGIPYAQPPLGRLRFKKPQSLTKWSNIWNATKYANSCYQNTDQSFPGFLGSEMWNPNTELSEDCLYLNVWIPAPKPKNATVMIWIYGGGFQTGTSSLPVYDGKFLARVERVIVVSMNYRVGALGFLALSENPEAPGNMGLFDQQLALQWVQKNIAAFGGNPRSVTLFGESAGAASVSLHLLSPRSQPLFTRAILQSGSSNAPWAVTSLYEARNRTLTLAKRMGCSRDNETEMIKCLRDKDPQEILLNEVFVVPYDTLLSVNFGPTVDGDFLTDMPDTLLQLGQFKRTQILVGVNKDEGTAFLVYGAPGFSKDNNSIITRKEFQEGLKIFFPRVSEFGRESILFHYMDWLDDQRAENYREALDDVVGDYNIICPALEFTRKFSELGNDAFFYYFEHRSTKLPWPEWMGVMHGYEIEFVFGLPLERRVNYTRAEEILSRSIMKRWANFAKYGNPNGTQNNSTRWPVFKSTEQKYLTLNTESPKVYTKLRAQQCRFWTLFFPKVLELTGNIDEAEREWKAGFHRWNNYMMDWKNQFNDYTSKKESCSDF

T1 sequence (O42275 24-633): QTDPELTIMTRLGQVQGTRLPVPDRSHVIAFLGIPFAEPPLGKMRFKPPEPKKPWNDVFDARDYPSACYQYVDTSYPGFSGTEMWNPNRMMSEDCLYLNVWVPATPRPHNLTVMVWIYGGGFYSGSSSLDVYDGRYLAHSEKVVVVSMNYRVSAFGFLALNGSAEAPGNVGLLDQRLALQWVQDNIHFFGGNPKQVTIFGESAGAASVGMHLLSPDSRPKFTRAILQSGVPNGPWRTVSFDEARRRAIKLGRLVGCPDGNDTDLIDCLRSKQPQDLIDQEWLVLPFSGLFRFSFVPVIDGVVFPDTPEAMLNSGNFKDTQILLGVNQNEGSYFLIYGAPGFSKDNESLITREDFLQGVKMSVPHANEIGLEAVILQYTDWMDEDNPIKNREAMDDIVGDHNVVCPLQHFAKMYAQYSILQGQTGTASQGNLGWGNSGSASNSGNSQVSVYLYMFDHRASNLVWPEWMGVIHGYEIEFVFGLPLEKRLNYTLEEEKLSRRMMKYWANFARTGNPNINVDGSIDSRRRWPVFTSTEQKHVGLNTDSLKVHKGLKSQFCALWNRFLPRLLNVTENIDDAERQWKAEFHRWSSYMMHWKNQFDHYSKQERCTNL

| SMILES | IC50 (AChE from electric eel) [µM] | IC50 (BChE from equine serum) [µM] | SI (index selectivity) = IC50 (AChE)/IC50 (BChE) (BChE from equine serum) |
| --- | --- | --- | --- |
| CCN(C(=O)OC)C(C)C(=O)c1ccccc1 (stereo not drawn) [Compound 1, Methyl ethyl(1-oxo-1-phenylpropan-2-yl)carbamate] | 245.3 ± 0.75 | 227.9 ± 0.9 | 1.08 |
| CCC(C(=O)c1ccccc1)N(C)C(=O)OC (stereo not drawn) [Compound 2, Methyl methyl(1-oxo-1-phenylbutan-2-yl)carbamate] | 329 ± 9.72 | 441 ± 7.54 | 0.75 |
| CCC(C(=O)c1ccccc1)N(CC)C(=O)OC (stereo not drawn) [Compound 3, Methyl ethyl(1-oxo-1-phenylbutan-2-yl)carbamate] | 273.7 ± 2.16 | 363 ± 7.41 | 0.75 |
| COC(=O)N(C)C(C)C(=O)c1cccc(C)c1 (stereo not drawn) [Compound 4, Methyl methyl(1-oxo-1-(m-tolyl)propan-2-yl)carbamate] | 134 ± 2.3 | 116 ± 2.16 | 1.16 |
| COC(=O)N(C)C(C)C(=O)c1cccc(Cl)c1 (stereo not drawn) [Compound 5, Methyl (1-(3-chlorophenyl)-1-oxopropan-2-yl)(methyl)carbamate] | 330 ± 42.1 | 113.6 ± 0.29 | 2.90 |
| COC(=O)N(C)C(C)C(=O)c1ccc(OC)cc1 (stereo not drawn) [Compound 6, Methyl (1-(4-methoxyphenyl)-1-oxopropan-2-yl)(methyl)carbamate] | 147 ± 1.51 | 186.6 ± 1.55 | 0.79 |
| COC(=O)N(C)C(C)C(=O)c1ccc(C)cc1 (stereo not drawn) [Compound 7, Methyl methyl(1-oxo-1-(p-tolyl)propan-2-yl)carbamate] | 50.6 ± 0.63 | 181 ± 12 | 0.28 |
| COC(=O)N(C)C(C)C(=O)c1ccc(Cl)cc1 (stereo not drawn) [Compound 8, Methyl (1-(4-chlorophenyl)-1-oxopropan-2-yl)(methyl)carbamate] | 309 ± 6.16 | 132 ± 4.55 | 2.35 |
| COC(=O)N(C)C(C)C(=O)c1ccc(Br)cc1 (stereo not drawn) [Compound 9, Methyl (1-(4-bromophenyl)-1-oxopropan-2-yl)(methyl)carbamate] | 282.7 ± 0.71 | 224.1 ± 2.19 | 1.26 |
| COC(=O)N(C)C(C)C(=O)c1ccc2c(c1)OCO2 (stereo not drawn) [Compound 10, Methyl (1-(benzo[d][1,3]dioxol-5-yl)-1-oxopropan-2-yl)(methyl)carbamate] | 225 ± 2.72 | 194.9 ± 1.93 | 1.16 |
| CCN(C(=O)Oc1ccccc1)C(C)C(=O)c1ccccc1 (stereo not drawn) [Compound 11, Phenyl ethyl(1-oxo-1-phenylpropan-2-yl)carbamate] | 167 ± 1.75 | 27.6 ± 0.55 | 6.03 |
| CCC(C(=O)c1ccccc1)N(C)C(=O)Oc1ccccc1 (stereo not drawn) [Compound 12, Phenyl methyl(1-oxo-1-phenylbutan-2-yl)carbamate] | 179 ± 6.21 | 53 ± 1.06 | 3.38 |
| CCC(C(=O)c1ccccc1)N(CC)C(=O)Oc1ccccc1 (stereo not drawn) [Compound 13, Phenyl ethyl(1-oxo-1-phenylbutan-2-yl)carbamate] | 95.7 ± 5.37 | 15.62 ± 0.06 | 6.13 |
| CCCC(C(=O)c1ccccc1)N(C)C(=O)Oc1ccccc1 (stereo not drawn) [Compound 14, Phenyl methyl(1-oxo-1-phenylpentan-2-yl)carbamate] | 97.97 ± 0.36 | 16.55 ± 0.13 | 5.92 |
| Cc1cccc(C(=O)C(C)N(C)C(=O)Oc2ccccc2)c1 (stereo not drawn) [Compound 15, Phenyl methyl(1-oxo-1-(m-tolyl)propan-2-yl)carbamate] | 166 ± 2.75 | 48.29 ± 0.31 | 3.43 |
| CC(C(=O)c1cccc(Cl)c1)N(C)C(=O)Oc1ccccc1 (stereo not drawn) [Compound 16, Phenyl (1-(3-chlorophenyl)-1-oxopropan-2-yl)(methyl)carbamate] | 109 ± 1.1 | 14.81 ± 0.01 | 7.35 |
| COc1ccc(C(=O)C(C)N(C)C(=O)Oc2ccccc2)cc1 (stereo not drawn) [Compound 17, Phenyl (1-(4-methoxyphenyl)-1-oxopropan-2-yl)(methyl)carbamate] | 90.21 ± 0.73 | 106 ± 1.94 | 0.85 |
| Cc1ccc(C(=O)C(C)N(C)C(=O)Oc2ccccc2)cc1 (stereo not drawn) [Compound 18, Phenyl methyl(1-oxo-1-(p-tolyl)propan-2-yl)carbamate] | 139 ± 1.45 | 87.6 ± 2.37 | 1.58 |
| CC(C(=O)c1ccc(Cl)cc1)N(C)C(=O)Oc1ccccc1 (stereo not drawn) [Compound 19, Phenyl (1-(4-chlorophenyl)-1-oxopropan-2-yl)(methyl)carbamate] | 44.2 ± 2.35 | 38.96 ± 0.28 | 1.14 |
| CC(C(=O)c1ccc(Br)cc1)N(C)C(=O)Oc1ccccc1 (stereo not drawn) [Compound 20, Phenyl (1-(4-bromophenyl)-1-oxopropan-2-yl)(methyl)carbamate] | 51.5 ± 1.38 | 44.1 ± 1.71 | 1.17 |

| SMILES | IC50 (AChE from electric eel) [µM] | IC50 (BChE from equine serum) [µM] | SI (index selectivity) = IC50 (AChE)/IC50 (BChE) (BChE from equine serum) |
| --- | --- | --- | --- |
| Cc1ccc(C(=O)C(C)N(C)C(=O)Oc2ccccc2)cc1C (stereo not drawn) [Compound 21, Phenyl (1-(3,4-dimethylphenyl)-1-oxopropan-2-yl)(methyl)carbamate] | 47.9 ± 2.09 | 26.41 ± 0.05 | 1.82 |
| CC(C(=O)c1ccc2c(c1)OCO2)N(C)C(=O)Oc1ccccc1 (stereo not drawn) [Compound 22, Phenyl (1-(benzo[d][1,3]dioxol-5-yl)-1-oxopropan-2-yl)(methyl)carbamate] | 84 ± 0.43 | 53.6 ± 0.72 | 1.57 |
| CCN(C(=O)OCc1ccccc1)C(C)C(=O)c1ccccc1 (stereo not drawn) [Compound 23, Benzyl ethyl(1-oxo-1-phenylpropan-2-yl)carbamate] | 158.4 ± 0.87 | 11.37 ± 0.05 | 13.93 |
| CCC(C(=O)c1ccccc1)N(C)C(=O)OCc1ccccc1 (stereo not drawn) [Compound 24, Benzyl methyl(1-oxo-1-phenylbutan-2-yl)carbamate] | 104 ± 2.91 | 21.4 ± 0.26 | 4.87 |
| CCC(C(=O)c1ccccc1)N(CC)C(=O)OCc1ccccc1 (stereo not drawn) [Compound 25, Benzyl ethyl(1-oxo-1-phenylbutan-2-yl)carbamate] | 119 ± 1.23 | 21.3 ± 0.48 | 5.61 |
| CCCC(C(=O)c1ccccc1)N(C)C(=O)OCc1ccccc1 (stereo not drawn) [Compound 26, Benzyl methyl(1-oxo-1-phenylpentan-2-yl)carbamate] | 134.7 ± 0.7 | 16.3 ± 0.17 | 8.26 |
| Cc1cccc(C(=O)C(C)N(C)C(=O)OCc2ccccc2)c1 (stereo not drawn) [Compound 27, Benzyl methyl(1-oxo-1-(m-tolyl)propan-2-yl)carbamate] | 83.3 ± 2.49 | 12.5 ± 0.24 | 6.67 |
| CC(C(=O)c1cccc(Cl)c1)N(C)C(=O)OCc1ccccc1 (stereo not drawn) [Compound 28, Benzyl (1-(3-chlorophenyl)-1-oxopropan-2-yl)(methyl)carbamate] | 84.4 ± 2.27 | 5.51 ± 0.2 | 15.31 |
| COc1ccc(C(=O)C(C)N(C)C(=O)OCc2ccccc2)cc1 (stereo not drawn) [Compound 29, Benzyl (1-(4-methoxyphenyl)-1-oxopropan-2-yl)(methyl)carbamate] | 62.6 ± 0.65 | 57.39 ± 0.02 | 1.09 |
| Cc1ccc(C(=O)C(C)N(C)C(=O)OCc2ccccc2)cc1 (stereo not drawn) [Compound 30, Benzyl methyl(1-oxo-1-(p-tolyl)propan-2-yl)carbamate] | 40.06 ± 0.01 | 26.4 ± 0.4 | 1.52 |
| CC(C(=O)c1ccc(Cl)cc1)N(C)C(=O)OCc1ccccc1 (stereo not drawn) [Compound 31, Benzyl (1-(4-chlroophenyl)-1-oxopropan-2-yl)(methyl)carbamate] | 52.83 ± 0.34 | 7.02 ± 0.15 | 7.53 |
| CC(C(=O)c1ccc(Br)cc1)N(C)C(=O)OCc1ccccc1 (stereo not drawn) [Compound 32, Benzyl (1-(4-bromophenyl)-1-oxopropan-2-yl)(methyl)carbamate] | 32 ± 0.54 | 11.3 ± 0.15 | 2.84 |
| Cc1ccc(C(=O)C(C)N(C)C(=O)OCc2ccccc2)cc1C (stereo not drawn) [Compound 33, Benzyl (1-(3,4-dimethylphenyl)-1-oxopropan-2-yl)(methyl)carbamate] | 76.8 ± 2.76 | 16.9 ± 0.22 | 4.55 |
| CC(C(=O)c1ccc2c(c1)OCO2)N(C)C(=O)OCc1ccccc1 (stereo not drawn) [Compound 34, Benzyl (1-(benzo[d][1,3]dioxol-5-yl)-1-oxopropan-2-yl)(methyl)carbamate] | 75.6 ± 1.25 | 51.9 ± 1.18 | 1.46 |
| COC(=O)N(C)C(C)C(=O)c1cccc2ccccc12 (stereo not drawn) [Compound 35] | 127 ± 1.74 | 150 ± 7.13 | 0.84 |
| CC(C(=O)c1cccc2ccccc12)N(C)C(=O)Oc1ccccc1 (stereo not drawn) [Compound 36] | 99.6 ± 5.88 | 12.7 ± 0.19 | 7.83 |
| CC(C(=O)c1ccc(Cl)c2ccccc12)N(C)C(=O)Oc1ccccc1 (stereo not drawn) [Compound 37, Phenyl (1-(4-chloronaphthalen-1-yl)-1-oxopropan-2-yl)(methyl)carbamate] | 30.6 ± 1.57 | 13.5 ± 0.47 | 2.26 |
| CC(C(=O)c1ccc(Br)c2ccccc12)N(C)C(=O)Oc1ccccc1 (stereo not drawn) [Compound 38, Phenyl (1-(4-bromonaphthalen-1-yl)-1-oxopropan-2-yl)(methyl)carbamate] | 61.7 ± 1.42 | 13 ± 0.28 | 4.76 |
| CC(C(=O)c1cccc2ccccc12)N(C)C(=O)OCc1ccccc1 (stereo not drawn) [Compound 39, Benzyl methyl(1-(naphthalen-1-yl)-1-oxopropan-2-yl)carbamate] | 105.2 ± 0.99 | 18.94 ± 0.18 | 5.55 |
